Experimental data published in patent publication EP2322194A2 (Reprise Biopharmaceutics, LLC, priority 2003, dated 2005).
Where “and” joins values, the source holds several entries; their conditions need not be identical. Identical values can stand only once. Like-named read-outs stand apart in the source and are kept apart here.

Test system: over-hydrated, healthy, non-smoking male and female volunteers
Format: in vivo, human
Conditions: for Mean peak urine osmolality: at 2 hours; for Mean nadir urine output: end of 2 hour infusion; for Urine Output / Urine Osmolality: individual subjects
Procedure: Briefly, an open-label, crossover study with 8 healthy, over-hydrated, non-smoking male and female volunteers, age 18-40. The subjects were dosed initially with 0.5 ng/kg dose, then with the 1.0 ng/kg dose and finally the 2.0 ng/kg dose. Pharmacodynamic and pharmacokinetic parameters were evaluated at each dose level. A washout period of two days (48 hours) was observed between dosing. Eight subjects evaluated in this study, 5 males, and 3 females. […] Each subject remained in the clinic from one day prior to first dosing to one day after last dosing for a total of 7 days. […] At this point over-hydration was discontinued. […] Urine-specific gravity was also measured. […] This same procedure was followed for the 1.0 ng/kg and 2.0 ng/kg infusions. […] Criteria for evaluation in the study included urine output over time, urine osmolality over time, urine-specific gravity over time, and […] osmolality and sodium over time. Statistical analysis on the above criteria was performed. The statistical analysis is descriptive and all statistical hypothesis testing was done for exploratory purposes. […] The second and third estimation used 200 mOsm/kg and 400 mOsm/kg as cut off levels for 'onset' and 'end' of action, respectively. […] The overall duration of action was estimated for each dose group using the nonparametric Kaplan-Meier method. […] Furthermore, the duration of action was presented for each treatment group using the mean, SD, median, minimum and maximum values. The dose-response relationship between duration of action and dose was investigated using an appropriate linear or nonlinear model.

[1] = 0.5 ng/kg, time 0 min (baseline)
[2] = 0.5 ng/kg, time -20 min (baseline)
[3] = 1.0 ng/kg, time 0 min (baseline)
[4] = 1.0 ng/kg, time -20 min (baseline)
[5] = 2.0 ng/kg, time 0 min (baseline)
[6] = 2.0 ng/kg, time -20 min (baseline)

## 1-desamino-8-D-arginine vasopressin [desmopressin]
0.5 ng/kg dose
  duration of antidiuretic effect: approximately 180 minutes
  Mean peak urine osmolality: 206.0 mOsm/kg
  Baseline mean urine osmolality: 55.8 mOsm/kg
  Baseline mean urine output: 18.6 mL/min
  Mean nadir urine output: 7.1 mL/min
[1]
  Urine Osmolality, Mean: 57.6 mOsm/kg
  Urine Output, Mean: 18.4 mL/min
0.5 ng/kg, time 20 min
  Urine Osmolality, Mean: 73.1 mOsm/kg
  Urine Output: 16.7 mL/min (2×) and 16.4 mL/min and 11.8 mL/min
0.5 ng/kg, time 40 min
  Urine Osmolality, Mean: 108.3 mOsm/kg
  Urine Output, Mean: 10.3 mL/min
0.5 ng/kg, time 60 min
  Urine Osmolality, Mean: 136.1 mOsm/kg
  Urine Output, Mean: 9.6 mL/min
0.5 ng/kg, time 80 min
  Urine Osmolality, Mean: 165.8 mOsm/kg
0.5 ng/kg, time 100 min
  Urine Osmolality, Mean: 186.3 mOsm/kg
  Urine Output, Mean: 7.7 mL/min
0.5 ng/kg, time 120 min
  Urine Osmolality, Mean: 206.0 mOsm/kg
  Urine Output, Mean: 7.1 mL/min
0.5 ng/kg, time 140 min
  Urine Osmolality, Mean: 188.3 mOsm/kg
  Urine Output, Mean: 9.6 mL/min
0.5 ng/kg, time 160 min
  Urine Osmolality, Mean: 155.8 mOsm/kg
  Urine Output, Mean: 9.7 mL/min
0.5 ng/kg, time 180 min
  Urine Osmolality, Mean: 136.8 mOsm/kg
  Urine Output, Mean: 11.1 mL/min
0.5 ng/kg, time 200 min
  Urine Osmolality, Mean: 157.8 mOsm/kg
  Urine Output, Mean: 10.4 mL/min
0.5 ng/kg, time 220 min
  Urine Osmolality, Mean: 136.5 mOsm/kg
  Urine Output, Mean: 10.4 mL/min
0.5 ng/kg, time 240 min
  Urine Osmolality, Mean: 141.7 mOsm/kg
  Urine Output: 10.5 mL/min and 11.4 mL/min and 4.2 mL/min
0.5 ng/kg, time 260 min
  Urine Osmolality, Mean: 147.5 mOsm/kg
  Urine Output, Mean: 9.7 mL/min
  Urine Osmolality: 80 mOsm/kg and 215 mOsm/kg
0.5 ng/kg, time 280 min
  Urine Osmolality, Mean: 169.0 mOsm/kg
  Urine Osmolality: 88 mOsm/kg and 250 mOsm/kg
0.5 ng/kg, time 300 min
  Urine Osmolality, Mean: 193.0 mOsm/kg
  Urine Output, Mean: 4.1 mL/min
  Urine Osmolality: 193 mOsm/kg
  Urine Output: 4.1 mL/min
0.5 ng/kg, time 320 min
  Urine Osmolality, Mean: 156.0 mOsm/kg
  Urine Output, Mean: 5.0 mL/min
  Urine Osmolality: 156 mOsm/kg
  Urine Output: 5 mL/min
0.5 ng/kg, time 340 min
  Urine Osmolality, Mean: 133.0 mOsm/kg
  Urine Output, Mean: 6.4 mL/min
  Urine Osmolality: 133 mOsm/kg
  Urine Output: 6.4 mL/min
0.5 ng/kg, time 360 min
  Urine Osmolality, Mean: 120.0 mOsm/kg
  Urine Output, Mean: 7.3 mL/min
  Urine Osmolality: 120 mOsm/kg
  Urine Output: 7.3 mL/min
[2]
  Urine Osmolality, Mean: 55.8 mOsm/kg
  Urine Output, Mean: 18.6 mL/min
1.0 ng/kg dose
  Mean peak urine osmolality: 444.7 mOsm/kg
  Baseline mean urine osmolality: 55.8 mOsm/kg
  Baseline mean urine output: 16.6 mL/min
  Mean nadir urine output: 1.3 mL/min
[3]
  Urine Osmolality, Mean: 56.5 mOsm/kg
  Urine Output, Mean: 16.7 mL/min
  Urine Output: 17.4 mL/min
1.0 ng/kg, time 20 min
  Urine Osmolality, Mean: 67.1 mOsm/kg
  Urine Output: 11.2 mL/min and 10.4 mL/min
1.0 ng/kg, time 40 min
  Urine Osmolality, Mean: 167.0 mOsm/kg
  Urine Output, Mean: 7.0 mL/min
  Urine Output: 5.7 mL/min and 7.6 mL/min
1.0 ng/kg, time 60 min
  Urine Osmolality, Mean: 259.4 mOsm/kg
  Urine Output, Mean: 3.7 mL/min
  Urine Output: 3.5 mL/min
1.0 ng/kg, time 80 min
  Urine Osmolality, Mean: 322.8 mOsm/kg
  Urine Output, Mean: 2.0 mL/min
  Urine Output: 0 mL/min
1.0 ng/kg, time 100 min
  Urine Osmolality, Mean: 375.5 mOsm/kg
  Urine Output, Mean: 2.5 mL/min
  Urine Output: 3.7 mL/min
1.0 ng/kg, time 120 min
  Urine Osmolality, Mean: 444.7 mOsm/kg
  Urine Output, Mean: 1.3 mL/min
  Urine Output: 0 mL/min
1.0 ng/kg, time 140 min
  Urine Osmolality, Mean: 412.2 mOsm/kg
  Urine Output, Mean: 1.8 mL/min
  Urine Output: 0 mL/min
1.0 ng/kg, time 160 min
  Urine Osmolality, Mean: 261.7 mOsm/kg
  Urine Output, Mean: 3.2 mL/min
1.0 ng/kg, time 180 min
  Urine Osmolality, Mean: 280.9 mOsm/kg
  Urine Output, Mean: 5.0 mL/min
  Urine Output: 7.1 mL/min
1.0 ng/kg, time 200 min
  Urine Osmolality, Mean: 216.3 mOsm/kg
  Urine Output, Mean: 6.7 mL/min
  Urine Output: 4.3 mL/min
1.0 ng/kg, time 220 min
  Urine Osmolality, Mean: 121.4 mOsm/kg
  Urine Output, Mean: 7.3 mL/min
1.0 ng/kg, time 240 min
  Urine Osmolality, Mean: 181.6' mOsm/kg
  Urine Output: 5.5 mL/min
1.0 ng/kg, time 260 min
  Urine Osmolality, Mean: 181.8 mOsm/kg
  Urine Output, Mean: 6.6 mL/min
  Urine Output: 4.7 mL/min
1.0 ng/kg, time 280 min
  Urine Osmolality, Mean: 242.5 mOsm/kg
  Urine Output, Mean: 4.7 mL/min
  Urine Output: 0 mL/min
1.0 ng/kg, time 300 min
  Urine Osmolality, Mean: 202.0 mOsm/kg
  Urine Output: 11.5 mL/min
1.0 ng/kg, time 320 min
  Urine Osmolality, Mean: 164.8 mOsm/kg
  Urine Output: 6.7 mL/min
1.0 ng/kg, time 340 min
  Urine Osmolality, Mean: 155.5 mOsm/kg
  Urine Output, Mean: 10.6 mL/min
1.0 ng/kg, time 360 min
  Urine Osmolality, Mean: 156.3 mOsm/kg
  Urine Output, Mean: 10.4 mL/min
[4]
  Urine Osmolality, Mean: 55.8 mOsm/kg
  Urine Output, Mean: 16.6 mL/min
  Urine Output: 10.2 mL/min and 16.8 mL/min
2.0 ng/kg dose
  duration of antidiuretic effect: ~360 min
  Mean peak urine osmolality: 587.2 mOsm/kg
  Baseline mean urine osmolality: 55.6 mOsm/kg
  Baseline mean urine output: 16.9 mL/min
  Mean nadir urine output: 0.7 mL/min
[5]
  Urine Osmolality, Mean: 56.0 mOsm/kg
  Urine Output, Mean: 16.5 mL/min
2.0 ng/kg, time 20 min
  Urine Osmolality, Mean: 75.6 mOsm/kg
  Urine Output, Mean: 10.5 mL/min
2.0 ng/kg, time 40 min
  Urine Osmolality, Mean: 301.4 mOsm/kg
  Urine Output, Mean: 2.3 mL/min
2.0 ng/kg, time 60 min
  Urine Osmolality, Mean: 410.0 mOsm/kg
  Urine Output, Mean: 1.3 mL/min
2.0 ng/kg, time 80 min
  Urine Osmolality, Mean: 516.0 mOsm/kg
  Urine Output, Mean: 0.7 mL/min
2.0 ng/kg, time 100 min
  Urine Osmolality, Mean: 525.6 mOsm/kg
  Urine Output, Mean: 0.7 mL/min
2.0 ng/kg, time 120 min
  Urine Osmolality, Mean: 587.2 mOsm/kg
  Urine Output, Mean: 0.7 mL/min
2.0 ng/kg, time 140 min
  Urine Osmolality, Mean: 576.7 mOsm/kg
  Urine Output, Mean: 1.0 mL/min
2.0 ng/kg, time 160 min
  Urine Osmolality, Mean: 534.7 mOsm/kg
  Urine Output, Mean: 1.2 mL/min
2.0 ng/kg, time 180 min
  Urine Osmolality, Mean: 534.3 mOsm/kg
  Urine Output, Mean: 1.2 mL/min
2.0 ng/kg, time 200 min
  Urine Osmolality, Mean: 494.5 mOsm/kg
  Urine Output, Mean: 1.1 mL/min
2.0 ng/kg, time 220 min
  Urine Osmolality, Mean: 438.7 mOsm/kg
  Urine Output, Mean: 1.3 mL/min
2.0 ng/kg, time 240 min
  Urine Osmolality, Mean: 455.1 mOsm/kg
  Urine Output, Mean: 2.2 mL/min
2.0 ng/kg, time 260 min
  Urine Osmolality, Mean: 355.3 mOsm/kg
  Urine Output, Mean: 2.4 mL/min
2.0 ng/kg, time 280 min
  Urine Osmolality, Mean: 343.2 mOsm/kg
  Urine Output, Mean: 2.5 mL/min
2.0 ng/kg, time 300 min
  Urine Osmolality, Mean: 324.4 mOsm/kg
  Urine Output, Mean: 3.2 mL/min
2.0 ng/kg, time 320 min
  Urine Osmolality, Mean: 220.9 mOsm/kg
  Urine Output, Mean: 6.6 mL/min
2.0 ng/kg, time 340 min
  Urine Osmolality, Mean: 173.0 mOsm/kg
2.0 ng/kg, time 360 min
  Urine Osmolality, Mean: 143.8 mOsm/kg
  Urine Output, Mean: 9.3 mL/min
[6]
  Urine Osmolality, Mean: 55.6 mOsm/kg
  Urine Output, Mean: 16.9 mL/min
Low doses as i.v. infusions over 2 hours, dose response fashion
  antidiuretic effect: significant antidiuretic effects
